Assay results: patent publication US20200093852A1, “Methods of Treating Ocular Disorders” (priority 2016, published 2020)
Counter-ions that a name gives are not always drawn.

Target: T1, Recombinant human active heparanase (Homo sapiens, UniProt Q9Y251)
T1 construct: Recombinant human active heparanase derived from Chinese hamster ovary cells; purchased R&D Systems; host or cells: Chinese hamster ovary cells
T1 sequence (Q9Y251 158-543 limits assumed): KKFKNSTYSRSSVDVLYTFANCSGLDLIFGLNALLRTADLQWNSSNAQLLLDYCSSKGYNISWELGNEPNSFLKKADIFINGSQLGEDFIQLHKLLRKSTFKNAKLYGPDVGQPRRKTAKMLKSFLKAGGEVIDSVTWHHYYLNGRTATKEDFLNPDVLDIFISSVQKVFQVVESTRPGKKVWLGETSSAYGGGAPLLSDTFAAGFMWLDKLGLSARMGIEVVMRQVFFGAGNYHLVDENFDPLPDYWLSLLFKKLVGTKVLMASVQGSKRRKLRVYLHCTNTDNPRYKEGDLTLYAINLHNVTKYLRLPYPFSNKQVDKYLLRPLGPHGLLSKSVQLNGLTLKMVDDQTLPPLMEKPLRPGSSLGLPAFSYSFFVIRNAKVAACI
T1 sequence (Q9Y251 36-109 limits assumed): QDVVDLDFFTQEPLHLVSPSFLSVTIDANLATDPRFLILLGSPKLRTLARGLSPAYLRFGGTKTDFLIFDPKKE
Assay: Heparanase enzyme inhibition assay (fondaparinux substrate, WST-1 detection)
Format: biochemical
Details: IC50 heparanase inhibition by compounds of Formula 1, Table 3
Description: Recombinant human active heparanase derived from Chinese hamster ovary cells was from R&D Systems. […] The plates were washed three times with PBST, shaken dry, and stored for up to two weeks at 4° C. before use. […] Following initiation of the reaction by addition of fondaparinux, the plate was sealed with adhesive film and incubated at 37° C. for 20-24 h.
Test compounds were dissolved and added to the assay at varying concentrations to calculate the level of inhibition.

| SMILES | IC50 [µM] |
| --- | --- |
| COc1cc2nc(-c3cccc4cccnc34)nc(NCCc3ccccc3)c2cc1OC [BT-2164] | 6.1 |

Same assay, conditions: IC50 heparanase inhibition by compounds of Formula 2-4, Table 4

| SMILES | IC50 [µM] |
| --- | --- |
| CCOC(=O)CSc1nc2cc(OC)c(OC)cc2c(=N)n1CCNC(=O)c1cc2ccccc2[nH]1 [BT-2136] | 26.8 |

Same assay, conditions: Table 3; read-out: IC50 heparanase inhibition by compounds of Formula 1

| SMILES | IC50 [µM] |
| --- | --- |
| COc1cc2nc(-c3ccc4[nH]ccc4c3)nc(NCCc3c[nH]c4ccccc34)c2cc1OC [BT-2005] | 41 |
| COc1cc2nc(-c3cncc4ccccc34)nc(NCCc3c[nH]c4ccccc34)c2cc1OC [BT-2007] | 92.7 |
| COc1cc2nc(N3CCN(C(=O)C4COc5ccccc5O4)CC3)nc(N)c2cc1OC (stereo not shown) [BT-2013, doxazosin mesylate, reference compound] | 57.5 |
| COc1cc2nc(-c3ccc4ccccc4c3)nc(NCCc3c[nH]c4ccccc34)c2cc1OC [BT-2057] | 56 |
| COc1cc2nc(-c3cccc4cccnc34)nc(NCCc3c[nH]c4ccccc34)c2cc1OC [BT-2062] | 1 |
| COc1cc2nc(-c3ccccc3CN3CCOCC3)nc(NCCc3c[nH]c4ccccc34)c2cc1OC [BT-2090] | 53.6 |
| COc1cc2nc(-c3cccc4cccnc34)nc(NC3CN(C(=O)c4cc5ccccc5[nH]4)C3)c2cc1OC [BT-2120] | 0.7 |
| COC(=O)c1ccc2c(S(=O)(=O)NC3CN(c4nc(N)c5cc(OC)c(OC)cc5n4)C3)c[nH]c2c1 [BT-2148] | 20.5 |
| COc1cc2nc(NCCNC(=O)c3cc(-c4ccccc4)on3)nc(N)c2cc1OC [BT-2161] | 18.9 |
| COc1cc2nc(N3CC(NC(=O)c4nnc(-c5ccccc5)o4)C3)nc(N)c2cc1OC [BT-2167] | 33 |
| COc1cc2nc(NCCNC(=O)c3nnc(-c4cc5ccccc5[nH]4)o3)nc(N)c2cc1OC [BT-2169] | 3.3 |
| COc1cc2nc(NCCNC(=O)c3nnc(-c4ccccc4)o3)nc(NCCc3ccccc3)c2cc1OC [BT-2170] | 55 |
| COc1cc2nc(-c3ccc4c(c3)OCCO4)nc(NCCc3c[nH]c4ccccc34)c2cc1OC [BT-2171] | 14 |
| COc1cc2nc(NCCNC(=O)c3nnc(-c4cc5ccccc5[nH]4)o3)nc(N)c2cc1OC [BT-2173] | 4.3 |
| COc1cc2nc(NCCNC(=O)c3nnc(-c4c[nH]c5ncccc45)o3)nc(N)c2cc1OC [BT-2177] | 21 |
| COc1cc2nc(-c3cccc4cccnc34)nc(NCCc3ccccn3)c2cc1OC [BT-2178] | 11 |
| COc1cc2nc(NCCc3ccccn3)nc(NCCc3c[nH]c4ccccc34)c2cc1OC [BT-2179] | 18 |
| COc1cc2nc(-c3cccc4cccnc34)nc(NCCNC(=N)N)c2cc1OC [BT-2181] | 11 |
| COc1cc2nc(NCCNC(=N)N)nc(NCCc3c[nH]c4ccccc34)c2cc1OC [BT-2182] | 18 |
| COc1cc2nc(-c3cccc4cccnc34)nc(NCCNS(=O)(=O)c3ccccc3)c2cc1OC [BT-2184] | 3.39 |
| COc1cc2nc(NCCNC(=O)c3nnc(-c4cccc(F)c4)o3)nc(N)c2cc1OC [BT-2185] | 22 |
| COc1cc2nc(-c3cccc4cccnc34)nc(NCCNC(=O)c3nnc(-c4ccccc4)o3)c2cc1OC [BT-2187] | 4.1 |
| COc1cc2nc(NCCNC(=O)c3nnc(-c4ccccc4)s3)nc(N)c2cc1OC [BT-2229] | 13.4 |

Same assay, conditions: Table 4; read-out: IC50 heparanase inhibition by compounds of Formula 2-4

| SMILES | IC50 [µM] |
| --- | --- |
| COc1cc2[nH]c(=S)n(CCNC(=O)c3cc4ccccc4[nH]3)c(=N)c2cc1OC [BT-2058] | 9 |
| COc1ccc(-c2ccc3[nH]c(C(=O)NCCn4c(=S)[nH]c5cc(OC)c(OC)cc5c4=N)cc3c2)cn1 [BT-2066] | 4.2 |
| COc1cc2[nH]c(=S)n(CCNC(=O)c3cc4cc(-c5ccc(C(=O)N6CCN(C)CC6)cc5)ccc4[nH]3)c(=N)c2cc1OC [BT-2068] | 2.8 |
| COc1cc2[nH]c(=S)n(CCNC(=O)c3cc4cc(-c5cccnc5)ccc4[nH]3)c(=N)c2cc1OC [BT-2070] | 1 |
| COc1cc2[nH]c(=S)n(CCNC(=O)c3c[nH]c4ccccc34)c(=N)c2cc1OC [BT-2071] | 7 |
| COc1cc2[nH]c(=S)n(CCNC(=O)c3cc4ccc(-c5cccnc5)cc4[nH]3)c(=N)c2cc1OC [BT-2072] | 3.1 |
| COc1cc2[nH]c(=S)n(CCNC(=O)c3n[nH]c4ccccc34)c(=N)c2cc1OC [BT-2100] | 37 |
| COc1cc2[nH]c(=S)n(CCNC(=O)c3c[nH]c4c(O)cccc34)c(=N)c2cc1OC [BT-2103] | 10.7 |
| COc1cc2[nH]c(=S)n(CCNC(=O)c3ccc(-c4ccccc4)[nH]3)c(=N)c2cc1OC [BT-2113] | 10.6 |
| COc1cc2[nH]c(=S)n(CCNC(=O)c3cc(-c4ccccc4)on3)c(=N)c2cc1OC [BT-2133] | 31.7 |
| COc1cc2nc(SC)n(CCNC(=O)c3cc4ccccc4[nH]3)c(=N)c2cc1OC [BT-2134] | 24.9 |
| COc1cc2nc(SCc3cccc(C(F)(F)F)c3)n(CCNC(=O)c3cc4ccc(-c5cccnc5)cc4[nH]3)c(=N)c2cc1OC [BT-2137] | 28 |
| COc1cc2nc(SCc3ccc(C(F)(F)F)cc3)n(CCNC(=O)c3cc4ccc(-c5cccnc5)cc4[nH]3)c(=N)c2cc1OC [BT-2138] | 5.9 |
| COc1cc2nc(SCc3ccc(C(F)(F)F)cc3)n(CCNC(=O)c3cc4cc(-c5cccnc5)ccc4[nH]3)c(=N)c2cc1OC [BT-2152] | 2.89 |
| COc1cc2nc(SCc3ccc(OC(F)(F)F)cc3)n(CCNC(=O)c3cc4cc(-c5cccnc5)ccc4[nH]3)c(=N)c2cc1OC [BT-2153] | 5.7 |
